Among the test systems are MOLT-16; COG-LL-319h; NALL-1.
Holding throughout (assay): selective drug sensitivity score (sDSS, relative to normal bone marrow) (sDSS (score)); higher = more potent and effective on the cell line relative to normal bone marrow cells
Common to all, as to conditions: 72 h

Structures are written as SMILES.
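Note: ALL cell lines in 384-well plates, five doses spanning 10,000-fold, each plate scaled between vehicle and 100 µmol/L benzalkonium chloride controls, sDSS an adapted area-under-curve metric.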

For the compound `CC[C@H](CO)Nc1nc(NCc2ccccc2)c2ncn(C(C)C)c2n1` [Seliciclib] (top concentration 10000 nM), the “selective drug sensitivity score” value was 0.26 in the assay on MOLT-16, 1.66 in the assay on COG-LL-319h and -0.74 with NALL-1.
Turning to `CN1CCN(C(=O)c2ccc3cc(CCNc4ncnc5ccc(C#N)cc45)ccc3c2)CC1` [Senexin_B] (top concentration 1000 nM), the “selective drug sensitivity score” value in the assay on MOLT-16 was 1.8; in the assay on COG-LL-319h it was -0.6; in the assay with NALL-1 it was -0.6.
Regarding `Clc1ccccc1C(c1ccccc1)(c1ccccc1)n1cccn1` [TRAM-34] (top concentration 1000 nM), the “selective drug sensitivity score” value in the assay on MOLT-16, in the assay with COG-LL-319h and in the assay with NALL-1 was -0.08 throughout.
`C=CC[C@@H]1/C=C(\C)C[C@H](C)C[C@H](OC)[C@H]2O[C@@](O)(C(=O)C(=O)N3CCCC[C@H]3C(=O)O[C@H](/C(C)=C/[C@@H]3CC[C@@H](O)[C@H](OC)C3)[C@H](C)[C@@H](O)CC1=O)[C@H](C)C[C@@H]2OC` [Tacrolimus] (top concentration 10000 nM): the “selective drug sensitivity score” value in the assay with MOLT-16 came out at 12.1; with COG-LL-319h, 12.7; in the assay on NALL-1 it was 0.48.
The corresponding values for `CCN(c1cc(-c2ccc(CN3CCOCC3)cc2)cc(C(=O)NCc2c(C)cc(C)[nH]c2=O)c1C)C1CCOCC1` [Tazemetostat] (top concentration 10000 nM) are -0.08, -0.08 and 8.22.
For the compound `COc1cc2c(Nc3ccc(Cl)c(Cl)c3F)ncnc2cc1OC[C@@H]1C[C@@H]2CN(C)C[C@@H]2C1` [Tesevatinib] (top concentration 1000 nM), the “selective drug sensitivity score” value in the assay with MOLT-16 was 1.74; in the assay with COG-LL-319h it was -1.36; with NALL-1 it was -0.06.
Turning to `O=C1CCC(N2C(=O)c3ccccc3C2=O)C(=O)N1` (centres undefined) [Thalidomide] (top concentration 10000 nM), the “selective drug sensitivity score” value in the assay with MOLT-16, in the assay with COG-LL-319h and in the assay with NALL-1 was -0.14 in each case.
In the case of `O=C1NC(=O)[C@@H](c2cn3c4c(cccc24)CCC3)[C@@H]1c1c[nH]c2ccccc12` [Tivantinib] (top concentration 1000 nM), the “selective drug sensitivity score” value in the assay with MOLT-16 turned out to be 3.48; in the assay on COG-LL-319h it was 3.58; in the assay with NALL-1, 4.78.
For the compound `C[C@@H]1CCN(C(=O)CC#N)C[C@@H]1N(C)c1ncnc2[nH]ccc12` [Tofacitinib] (top concentration 5000 nM), the “selective drug sensitivity score” value in the assay on MOLT-16, in the assay on COG-LL-319h and with NALL-1 was -7.86 in each case.
Regarding `COc1cc2c(NC3CCN(C(C)C)CC3)nc(C3CCCCC3)nc2cc1OCCCN1CCCC1` [UNC0638] (top concentration 10000 nM), the “selective drug sensitivity score” value in the assay with MOLT-16 is -1.04; with COG-LL-319h, 8.26; in the assay with NALL-1, -5.14.
For `CCCCNc1ncc(C(=O)NCc2ccc(-n3ccnc3)cc2)c(NC2CCC(O)CC2)n1` (centres undefined) [UNC2881] (top concentration 2500 nM), the “selective drug sensitivity score” value with MOLT-16 worked out at 0.2; in the assay on COG-LL-319h it was 0; in the assay with NALL-1, 0.6.
For the compound `CC[C@@H]1CN(C(=O)NCC(F)(F)F)C[C@@H]1c1cnc2cnc3[nH]ccc3n12` [Upadacitinib] (top concentration 10000 nM), the “selective drug sensitivity score” value in the assay with MOLT-16, with COG-LL-319h and in the assay with NALL-1 was -7.16 each time.
As to `O=C(O)CC1CC(c2ccccc2)=NO1` (centres undefined) [VGX-1027] (top concentration 10000 nM), the “selective drug sensitivity score” value is 0.16 in the assay with MOLT-16, -0.04 in the assay on COG-LL-319h and -0.04 with NALL-1.
As to `CCCCC(=O)OCC(=O)[C@]1(O)Cc2c(O)c3c(c(O)c2[C@@H](O[C@H]2C[C@H](NC(=O)C(F)(F)F)[C@H](O)[C@H](C)O2)C1)C(=O)c1c(OC)cccc1C3=O` [Valrubicin] (top concentration 5000 nM), the “selective drug sensitivity score” value in the assay with MOLT-16 was 18.1; in the assay with COG-LL-319h, 12.9; with NALL-1, -1.82.
For `CCc1c(C(=O)C(N)=O)c2c(OCC(=O)O)cccc2n1Cc1ccccc1` [Varespladib] (top concentration 10000 nM) the same measures were 1.76, -0.84 and -0.84.
In the case of `CC1(C)CCC(CN2CCN(c3ccc(C(=O)NS(=O)(=O)c4ccc(NCC5CCOCC5)c([N+](=O)[O-])c4)c(Oc4cnc5[nH]ccc5c4)c3)CC2)=C(c2ccc(Cl)cc2)C1` [Venetoclax] (top concentration 1000 nM), the “selective drug sensitivity score” value with MOLT-16 turned out to be 6; in the assay with COG-LL-319h, 28.8; with NALL-1, 20.5.
Take `CCCCOc1nc(N)c2c(n1)N(Cc1cccc(CN3CCCC3)c1)CC(=O)N2` [Vesatolimod] (top concentration 10000 nM): the results for the “selective drug sensitivity score” value with MOLT-16, in the assay on COG-LL-319h and in the assay with NALL-1 were -3.52, 0.38 and -3.52, respectively.
Consider `CCC1=C[C@@H]2CN(C1)Cc1c([nH]c3ccccc13)[C@@](C(=O)OC)(c1cc3c(cc1OC)N(C)[C@H]1[C@@](O)(C(=O)OC)[C@H](OC(C)=O)[C@]4(CC)C=CCN5CC[C@]31[C@@H]54)C2` [Vinorelbine] (top concentration 10000 nM), for which the “selective drug sensitivity score” value was 24.7 in the assay on MOLT-16, 12.2 in the assay on COG-LL-319h and 16.1 in the assay on NALL-1.

The values above are taken from the supplement of paper PMC8967900.
